The source of these data is patent publication US20240101589A1, “INHIBITORS OF METTL3” (Strom Therapeutics Limited, priority 2020, published 2024).

As usually defined, the IC50 is the midpoint of a concentration-inhibition curve. Low values mean inhibition by little substance, high ones a need for much substance.

One assay addresses METTL3/14 (Homo sapiens (Human), UniProt Q86U44). In words: METTL3/14 methyltransferase assay (RapidFire mass spectrometry, RFMS). In kind it is biochemical. The following applies: 5 nM METTL3/14, 0.2 μM RNA substrate, 0.5 μM SAM, 60 minutes at room temperature. Here is the method:
The enzymatic assay was established to determine IC50 values for inhibition of RNA methyltransferase activity. The enzyme used was full-length his-tagged METTL3 co-expressed with full length FLAG-tagged METTL14 in a baculovirus expression system. Enzymatic reactions were performed at room temperature in 384-well plates using a final reaction volume of 20 μL containing 20 mM TrisCl pH 7.6, 1 mM DTT, 0.01% Tween-20. 5 nM final concentration of METTL3/14 was pre-incubated with various compound concentrations for 10 minutes, followed by addition of 0.2 μM final concentration synthetic RNA substrate (5′P-[…]-3′) and 0.5 μM final concentration S-adenosyl-methionine (SAM). The reaction was incubated for a further 60 minutes at room temperature, and then quenched by the addition of 40 μL 7.5% TCA with two internal product standards (D4-SAH and 13C10-SAH). After termination, plates were sealed, centrifuged and stored at 4° C. until analysis.
RNA methyltransferase activity was measured label free using the RapidFire™ mass spectrometry (RF/MS) platform. Stopped and stable assay plates were analyzed on the Agilent RF300 integrated autosampler/solid-phase extraction (SPE) system coupled to an ABSciex 4000 mass spectrometer for the generation of the product S-adenosyl homocysteine (SAH) and normalized to the ratio of signal of the two internal product standards, respectively. Solvent A was water containing 0.1% (v/v) TCA. Solvent B was acetonitrile/0.1% ammonium acetate (8:2, v/v). More specifically, plates were centrifuged at 4350 rpm for 10 min, samples were aspirated under vacuum for 600 ms, then loaded onto a C18 solid-phase extraction cartridge and washed for 3 s with solvent A at a flow rate of 1.5 mL/min. Retained product and internal standards were eluted with solvent B at a flow rate of 1 mL/min for 3 s and finally the cartridge was re-equilibrated with solvent A for 500 ms. The mass transition for the product (SAH) was 384.9/135.9 Da. Transitions of the two internal product standards (IS1: D4-SAH and IS2: 13C10-SAH) were 389.1/135.8 Da and 395.0/134.2 Da, respectively. Ratios of SAH/IS1 and SAH/IS2 were used for normalization of matrix effects. IC50 values were calculated based on dilution series of individual compounds. Potency of a compound was measured at varied inhibitor concentrations and normalized to control wells without RNA substrate and without inhibition (DMSO only).

A further assay deals with KASUMI-1 cells. In words: Kasumi cell proliferation CTG. In kind it is cell-based. As to conditions: treated for 120 hours, CellTiter-Glo. How it is done:
Cell culture: KASUMI-1 cells (ACC20, Leibniz-Institut DSMZ Deutsche Sammlung von Mikroorganismen und Zellkulturen GmbH) were grown in RPMI 1640 (31870-025, Gibco) supplemented with 20% fetal bovine serum (F1524, Gibco), 1 mM sodium pyruvate (11360-039, Gibco) and 2 mM Glutamax (35050-038, Gibco) in a 5% CO2 humidified incubator at 37° C.
Cell treatment and cell growth assessment: KASUMI-1 cells were seeded in ultra-low attachment 384-well culture plate (MS-9384WZ, SBio) at a final concentration of 250 000 cells/ml (35 μL/well) and treated for 120 hours with compounds inhibiting the METTL3/14 activity (10 serial semi-log dilutions, 30 μM as top concentration). Upon treatment, Kasumi1 cells were incubated for 10 min at RT with the CellTiter-Glo reagent (G7571, Promega). Measurement of the luminescence signal was performed on a microplate reader (Ensight, PerkinElmer).
(ATP-based viability assays read luminescence as a measure of living cells.)

The next assay relates to Caov-3 cells. In words: Caov3 cell proliferation CTG. Format: cell-based. As to conditions: Homo sapiens, treated for 120 hours, CellTiter-Glo. How it is done:
Cell treatment and cell growth assessment: 18 hours post-seeding in white 384-Viewplate (6007480, PerkinElmer) at 1500 cells/well, Caov3 cells were treated for 120 hours with compounds inhibiting the METTL3/14 activity (10 serial semi-log dilutions, 30 μM as top concentration). Upon treatment, Coav-3 cells were incubated for 10 min at RT with the CellTiter-Glo reagent (G7571, Promega). Measurement of the luminescence signal was performed on a microplate reader (Ensight, PerkinElmer).

Sequence of METTL3/14 (Q86U44 whole entry): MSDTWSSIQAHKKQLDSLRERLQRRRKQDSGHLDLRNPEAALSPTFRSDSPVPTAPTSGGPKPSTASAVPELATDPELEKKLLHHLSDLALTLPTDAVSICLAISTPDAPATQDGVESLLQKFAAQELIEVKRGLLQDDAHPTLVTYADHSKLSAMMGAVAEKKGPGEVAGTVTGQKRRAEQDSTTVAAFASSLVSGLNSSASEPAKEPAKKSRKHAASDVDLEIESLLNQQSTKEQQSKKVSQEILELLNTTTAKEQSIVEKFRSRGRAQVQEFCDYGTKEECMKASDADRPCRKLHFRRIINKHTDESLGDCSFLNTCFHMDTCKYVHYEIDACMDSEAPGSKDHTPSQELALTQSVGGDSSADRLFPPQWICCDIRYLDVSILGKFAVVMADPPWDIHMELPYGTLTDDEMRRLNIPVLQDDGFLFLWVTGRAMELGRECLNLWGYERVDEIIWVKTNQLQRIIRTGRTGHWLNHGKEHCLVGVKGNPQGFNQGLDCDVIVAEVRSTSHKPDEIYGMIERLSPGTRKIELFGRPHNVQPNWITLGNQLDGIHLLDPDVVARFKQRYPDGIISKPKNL
Sequence of METTL3/14 (Q9HCE5 whole entry partner): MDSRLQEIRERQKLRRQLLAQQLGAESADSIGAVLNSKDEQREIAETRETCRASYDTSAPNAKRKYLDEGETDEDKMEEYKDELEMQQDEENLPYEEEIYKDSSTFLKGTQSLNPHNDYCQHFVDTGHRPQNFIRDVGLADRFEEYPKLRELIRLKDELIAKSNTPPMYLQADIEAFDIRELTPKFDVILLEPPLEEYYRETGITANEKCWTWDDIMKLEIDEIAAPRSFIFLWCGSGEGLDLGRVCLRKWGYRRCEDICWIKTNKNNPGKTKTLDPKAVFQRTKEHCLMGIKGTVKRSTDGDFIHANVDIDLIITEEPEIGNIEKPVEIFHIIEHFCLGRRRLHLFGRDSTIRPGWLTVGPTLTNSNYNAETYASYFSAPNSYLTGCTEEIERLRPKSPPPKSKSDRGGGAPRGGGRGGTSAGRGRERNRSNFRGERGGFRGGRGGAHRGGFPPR

`Nc1ncnc2c1c(Br)cn2[C@@H]1O[C@H](/C=C/CCCNCC2CCC2)[C@@H](O)[C@H]1O` [Example 2, (2R,3R,4S,5R)-2-{4-amino-5-bromo-7H-pyrrolo[2,3-d]pyrimidin-7-yl}-5-[(1E)-5-[(cyclobutylmethyl)amino]pent-1-en-1-yl]oxolane-3,4-diol]: the IC50 is 42.6 nM against METTL3/14; 7300 nM in the assay with KASUMI-1 cells (Homo sapiens, Kasumi 1, 120 h); 3800 nM in the assay on Caov-3 cells.
In the case of `Nc1ncnc2c1c(Br)cn2[C@@H]1O[C@H](/C=C/CCCNCc2ccccc2)[C@@H](O)[C@H]1O` [Example 5, (2R,3R,4S,5R)-2-{4-amino-5-bromo-7H-pyrrolo[2,3-d]pyrimidin-7-yl}-5-[(1E)-5-(benzylamino)pent-1-en-1-yl]oxolane-3,4-diol], the IC50 came out at 196 nM on METTL3/14, 360 nM in the assay with KASUMI-1 cells and 330 nM in the assay with Caov-3 cells.
As for `Nc1ncnc2c1c(Br)cn2[C@@H]1O[C@H](/C=C/CCCNCC23CC(F)(C2)C3)[C@@H](O)[C@H]1O` [Example 6], the IC50 was 1600 nM in the assay with KASUMI-1 cells (Homo sapiens, Kasumi 1, 120 h) and 400 nM with Caov-3 cells.
As to `Nc1ncnc2c1c(Br)cn2[C@@H]1O[C@H](CC/C=C/CNCc2ccccc2)[C@@H](O)[C@H]1O` [Example 9, (2R,3R,4S,5R)-2-(4-amino-5-bromo-7H-pyrrolo[2,3-d]pyrimidin-7-yl)-5-((E)-5-(benzylamino)pent-3-en-1-yl)tetrahydrofuran-3,4-diol], the concentration for half-maximal inhibition (IC50) on METTL3/14 was determined as 123 nM; with KASUMI-1 cells (Homo sapiens, Kasumi 1, 120 h), 4600 nM; in the assay with Caov-3 cells, 5700 nM.
Consider `Nc1ncnc2c1c(Br)cn2[C@@H]1C[C@H](c2ccc(CNCC3CCC3)cc2)[C@@H](O)[C@H]1O` [Example 10, (1R,2S,3R,5R)-3-(4-amino-5-bromo-7H-pyrrolo[2,3-d]pyrimidin-7-yl)-5-(4-(((cyclobutylmethyl)amino)methyl)phenyl)cyclopentane-1,2-diol], for which the IC50 against METTL3/14 was determined as 150 nM; in the assay with KASUMI-1 cells (Homo sapiens, Kasumi 1, 120 h), 4400 nM; in the assay on Caov-3 cells, 6500 nM.
On to `Nc1ncnc2c1c(Br)cn2[C@@H]1C[C@H](c2ccc3cc(CNCC45CC(F)(C4)C5)[nH]c3c2)[C@@H](O)[C@H]1O` [Example 11, (1R,2S,3R,5R)-3-{4-amino-5-bromo-7H-pyrrolo[2,3-d]pyrimidin-7-yl}-5-(2-{[({3-fluorobicyclo[1.1.1]pentan-1-yl}methyl)amino]methyl}-1H-indol-6-yl)cyclopentane-1,2-diol], for which the concentration for half-maximal inhibition (IC50) in the assay with KASUMI-1 cells (Homo sapiens, Kasumi 1, 120 h) was found to be 950 nM; in the assay with Caov-3 cells it was 250 nM.
On to `Nc1ncnc2c1c(Br)cn2[C@@H]1C[C@H](c2ccc(CCNCC34CC(F)(C3)C4)cc2)[C@@H](O)[C@H]1O` [Example 12, (1R,2S,3R,5R)-3-{4-amino-5-bromo-7H-pyrrolo[2,3-d]pyrimidin-7-yl}-5-(4-{2-[({3-fluorobicyclo[1.1.1]pentan-1-yl}methyl)amino]ethyl}phenyl)cyclopentane-1,2-diol], for which the IC50 came to 46.6 nM against METTL3/14; 4900 nM with KASUMI-1 cells (Homo sapiens, Kasumi 1, 120 h); 8300 nM with Caov-3 cells.
For `Nc1ncnc2c1c(-c1cc[nH]n1)cn2[C@@H]1O[C@H](/C=C/CCCNCC23CC(F)(C2)C3)[C@@H](O)[C@H]1O` [Example 20, (2R,3R,4S,5R)-2-[4-amino-5-(1H-pyrazol-3-yl)-7H-pyrrolo[2,3-d]pyrimidin-7-yl]-5-[(1E)-5-[({3-fluorobicyclo[1.1.1]pentan-1-yl}methyl)amino]pent-1-en-1-yl]oxolane-3,4-diol], the half-inhibitory concentration (IC50) came out at 6.1 nM at METTL3/14 and 1690 nM in the assay with Caov-3 cells.
On to `Nc1ncnc2c1c(Br)cn2[C@@H]1O[C@H](/C=C/CCCN2CCC3(CCC3)C2)[C@@H](O)[C@H]1O` [Example 21], for which the IC50 against METTL3/14 is 23.9 nM; in the assay on KASUMI-1 cells (Homo sapiens, Kasumi 1, 120 h), 4850 nM; in the assay with Caov-3 cells it was 4570 nM.
The like results for `Nc1ncnc2c1c(Br)cn2[C@H]1C[C@H](O)[C@@H](/C=C/CCCNCC23CC(F)(C2)C3)O1` [Example 22, (2R,3S,5R)-5-(4-amino-5-bromo-pyrrolo[2,3-d]pyrimidin-7-yl)-2-[(E)-5-[(3-fluoro-1-bicyclo[1.1.1]pentanyl)methylamino]pent-1-enyl]tetrahydrofuran-3-ol] were, in that order, 12.8 nM, 4280 nM and 2880 nM.
The like results for `Nc1ncnc2c1c(F)cn2[C@@H]1C[C@H](c2ccc3cc(CNCC45CC(F)(C4)C5)[nH]c3c2)[C@@H](O)[C@H]1O` [Example 29, (1R,2S,3R,5R)-3-{4-amino-5-fluoro-7H-pyrrolo[2,3-d]pyrimidin-7-yl}-5-(2-{[{{3-fluorobicyclo[1.1.1]pentan-1-yl}methyl)amino]methyl}-1H-indol-6-yl)cyclopentane-1,2-diol] were, in that order, 6.1 nM, 2850 nM and 1540 nM.
For `Nc1ncnc2c1c(Cl)cn2[C@@H]1C[C@H](c2ccc3cc(CNCC45CC(F)(C4)C5)[nH]c3c2)[C@@H](O)[C@H]1O` [Example 30, (1R,2S,3R,5R)-3-{4-amino-5-chloro-7H-pyrrolo[2,3-d]pyrimidin-7-yl}-5-(2-{[({3-fluorobicyclo[1.1.1]pentan-1-yl}methyl)amino]methyl}-1H-indol-6-yl)cyclopentane-1,2-diol], in that order: 6.1 nM, 1290 nM and 556 nM.
In the case of `Nc1ncnc2c1c(Br)cn2[C@@H]1C[C@H](c2ccc3[nH]c(CNCC45CC(F)(C4)C5)cc3c2)[C@@H](O)[C@H]1O` [Example 31, (1R,2S,3R,5R)-3-{4-amino-5-bromo-7H-pyrrolo[2,3-d]pyrimidin-7-yl}-5-(2-{[{{3-fluorobicyclo[1.1.1]pentan-1-yl}methyl)amino]methyl}-1H-indol-5-yl)cyclopentane-1,2-diol], the half-maximal inhibitory concentration (IC50) against METTL3/14 was 8.24 nM; in the assay on KASUMI-1 cells (Homo sapiens, Kasumi 1, 120 h), 1930 nM; with Caov-3 cells it was 2650 nM.
As for `Nc1ncnc2c1c(Br)cn2[C@@H]1C[C@H](c2ccc3cc(CN4CCC5(CCC5)C4)[nH]c3c2)[C@@H](O)[C@H]1O` [Example 32, (1R,2S,3R,5R)-3-{4-amino-5-bromo-7H-pyrrolo[2,3-d]pyrimidin-7-yl}-5-[2-({6-azaspiro[3.4]octan-6-yl}methyl)-1H-indol-6-yl]cyclopentane-1,2-diol], the half-inhibitory concentration (IC50) against METTL3/14 amounted to 6.1 nM; with KASUMI-1 cells (Homo sapiens, Kasumi 1, 120 h), 1220 nM; in the assay on Caov-3 cells it was 551 nM.
For `Nc1ncnc2c1ccn2[C@@H]1C[C@H](c2ccc3cc(CN4CCC5(CCC5)C4)[nH]c3c2)[C@@H](O)[C@H]1O` [Example 33, (1R,2S,3R,5R)-3-{4-amino-7H-pyrrolo[2,3-d]pyrimidin-7-yl}-5-[2-({6-azaspiro[3.4]octan-6-yl}methyl)-1H-indol-6-yl]cyclopentane-1,2-diol], in that order: 6.22 nM, 1390 nM and 276 nM.
The like results for `Nc1ncnc2c1c(Br)cn2[C@@H]1C[C@H](c2ccc(CNCC34CC(F)(C3)C4)cc2)[C@@H](O)[C@H]1O` [Example 34, (1R,2S,3R,5R)-3-{4-amino-5-bromo-7H-pyrrolo[2,3-d]pyrimidin-7-yl}-5-(4-{[({3-fluorobicyclo[1.1.1]pentan-1-yl}methyl)amino]methyl}phenyl)cyclopentane-1,2-diol] were, in that order, 9.11 nM, 2390 nM and 1880 nM.
